Legend:
[1] = test system: recombinant activated JNK; assay: in vitro kinase assay JNK (ADP-Glo); type: biochemical; conditions: 100 μM ATP
Method: Purified recombinant activated JNK (10 nM) (ProQinase) was preincubated 10 minutes at 30° C. with the compound of interest at concentrations between 1 and 100 μM in duplicate in a final volume of 30 μl of kinase buffer (Hepes 60 mM pH 7.5, MgCl2 3 mM, MnCl2 3 mM, sodium orthovanadate 3 μM, DTT 1.2 mM). After preincubation, peptide substrate (SignalChem #P03-58) and ATP were added to a final concentration of 10 μM and 100 μM respectively, and then incubated 40 minutes at 30° C. for the kinase reaction. Phosphorylation was analyzed with ADP-Glo™ (Promega #V9101) and emitted luminescence was measured with BMG Fluostar microplate reader.

[2] = test system: TNF-α secretion by a human monocytic cell line, THP-1; assay: Inhibition of TNF-α secretion by LPS-stimulated THP-1 cells (ELISA); type: cell-based; conditions: LPS-stimulated THP-1, TNF-α
Method: Thp1-Inhibition of TNF-α Secretion by a Human Monocytic Cell Line, THP-1
THP-1 cells, growing in log phase, were collected by centrifugation and resuspended in RPMI 1640 (Sigma Aldrich), to a final cell concentration of 2×10^6 cells/ml. Cells were plated into 24-well plates (BD Biosciences). Dilutions of compounds in dimethyl sulfoxide (DMSO) were added to the culture to a final concentration M. The final DMSO concentration was 0.5%. The cells […] suspensions were preincubated with compounds for 1 h at 37° C. in a 5% CO2 humidified atmosphere before the addition of LPS (Sigma Aldrich, L2654) to a g/ml. After that, cells were incubated for 3 h followed final concentration of […] by centrifugation to pellet cells. Cell supernatants were stored at 4° C. until human analysis for TNF-α content. TNF-α levels were determined by ELISA (TNF Biotrak, GE Healthcare) following the manufacturer's directions. The percentage inhibition was calculated for each compound concentration tested, and the IC50 was calculated for each compound.

[3] = test system: Aβ25-35-induced learning deficits; assay: Novel object recognition after i.c.v. Aβ25-35 injection; type: in vivo, male Sprague Dawley rats; conditions: 10 mg/kg i.v. once a day
Method: The purpose of the study was to determine whether the test compound 1 can alleviate the pathology produced in rats by the acute intracerebroventricular (i.c.v) injection of an oligomeric Aβ25-35 peptide preparation. The compound efficacy was evaluated 7 days after the peptide administration, on: • the attenuation of the Aβ25-35-induced learning deficits (recognition long-term memory: novel object recognition); • the attenuation of the Aβ25-35-induced Aβ^1-42 accumulation in the rat hippocampus. One administration procedure was examined: the compound 1 (10 mg/kg) administered intraveinously (i.v.) once a day during 9 days. […] On day 8 and 9, the recognition long-term memory of the animals was assessed using the novel object recognition (NOR) procedure. […] Each rat was placed in the open-field and the exploratory activity recorded during a 10-min duration session. The activity was analyzed using the Nosetrack® protocol (Viewpoint), in terms of number of contact with objects and duration of contacts. […] Each rat was placed again in the open-field and the exploratory activity recorded during a 10-min duration session. The activity was analyzed similarly. The preferential exploration index was calculated as the ratio of the number (or duration) of contacts with the object in position #1 over the total number for duration) of contacts with the two objects. […]

% of inhibition at 1 μM, JNK ([1]; 1 μM compound): 49% | % of inhibition at 10 μM, JNK ([1]; 10 μM compound): 98%
SMILES: CCCOc1ccc(Nc2nc3nonc3nc2N2CCC(Oc3ccc(Cl)cc3)CC2)cc1 [Comp 1]
inhibition at 1 µM ([2]; 1 μM compound, read-out: % of inhibition at 1 μM, THP1): 51% | inhibition at 10 µM ([2]; 10 μM compound, read-out: % of inhibition at 10 μM, THP1): 74% | Object preference in session 2 (contacts and duration of contacts) ([3]; day 8, two identical objects, vs no preference level): higher than 50% | Novel object preference in session 3 (number and duration of contacts) ([3]; day 9, vs 50% level): alleviated the impairments
